For data set [1], the system named is human prostate cancer cells PC3. In words: MTT assay, survival/growth of cultured human prostate cancer cells PC3. Type of data set: cell-based. To be noted: for EC50: figure legends, survival of cultured PC3 cells, MTT, six days after drug treatment, read-out: ED50 (the source's name); for IC50: read-out: concentration needed for 50% growth inhibition (ID50), Table 3, PC-3. The method, then: (§1) Human breast cancer cell line MCF7 was grown in Richter's Improved Modified Eagle's Medium supplemented with 10% fetal bovine serum (FBS) and 2.2 g/L sodium bicarbonate. Human brain tumor cell line U251 MG-NCI was grown in Dulbecco's Modified Eagle's Medium supplemented with 10% FBS. Human lung cancer cell line A549 was grown in Ham's F-12K medium (Cellgro, Mediatech, Inc., VA), supplemented with 10% FBS and 2 mM L-glutamine. Human colon cancer cell line HT29 was cultured in McCoy's 5A medium (Gibco, BRL, Gaithersburg, Md.) supplemented with 10% FBS. Human prostate cancer cell lines PC-3, LNCAP and DuPro were grown in RPMI 1640 Medium (Cellgro, Mediatech, Inc., VA) supplemented with 10% FBS. Another human prostate cancer cell line DU145 was grown in Dulbecco's Modified Eagle's Medium (Gibco, BRL, Gaithersburg, Md.) supplemented with 5% FBS. The A549, MCF7, PC3, LNCAP and DuPro cell lines were cultured in 100 units/mL penicillin and 100 μg/mL streptomycin. HT29 and U251MG cell lines were grown in 50 μg/mL gentamycin (Gibco, BRL, Gaithersburg, Md.). DU145 cell line was maintained in 1% antibitic-antimycotic solution (Sigma, St. Louis, Mo.). The cell cultures were maintained at 37° C. in 5% CO2/95% humidified air. DuPro cells were obtained from M. Eileen Dolan, University of Chicago. All other cells are available from the American Type Culture Collection, Rockville, Md.
(§2) A conventional MTT assay was used to evaluate percent cell survival. Exponentially growing monolayer cells were plated in 96-well plates at a density of 500 cells per well and allowed to grow for 24 hours. Serial dilutions of the drugs were added to the wells. Six days after drug treatment, 25 μl of MTT solution (5 mg/ml) was added to each well and incubated for 4 hours at 37° C. Then 100 μl of lysis buffer (20% sodium dodecyl sulfate, 50% DMF, and 0.8% acetic acid, pH 4.7) was added to each well and incubated for an additional 22 hours. A microplate reader (“EMAX”-brand, Molecular Devices, Sunnyvale, Calif.) set at 570 nm was used to determine the optical density of the cultures. Results are expressed as a ratio of the optical density in drug-treated wells to the optical density in wells treated with vehicle only.
(§3) Using the protocols of Example 2, the porphyrin-polyamine conjugates were tested for activity in vitro in various cancer cell lines.

In data set [2] the test system is human breast cancer cells MCF7. In words: MTT assay, survival/growth of cultured human breast cancer cells MCF7. As to conditions: for IC50: read-out: concentration needed for 50% growth inhibition (ID50), Table 3, MCF7. Type of data set: cell-based. The method, then: (§4) As shown in Table 3 and FIGS. 1–32, several novel conformationally restricted polyamine analogs were tested for anti-proliferative properties against cancer cells.
as §1, §2

The subject of data set [3] is human colon cancer cells HT29. In words: MTT assay, survival/growth of cultured human colon cancer cells HT29. It counts as cell-based. To be noted: read-out: concentration needed for 50% growth inhibition (ID50); Table 3; HT-29. The method, then: as §4, §1, §2
For orientation: Tetrazolium dyes change colour on reduction, which living cells bring about.

Data set [4] has as its system human brain tumor cells U251 MG NCI. Kind of data set: MTT assay, survival/growth of cultured human brain tumor cells U251 MG NCI. Type of data set: cell-based. As to conditions: for EC50: figure legends, survival of cultured U251 MG NCI cells, MTT, six days after drug treatment, read-out: ED50 (the source's name); for IC50: read-out: concentration needed for 50% growth inhibition (ID50), Table 3, U251MG. The method, then: as §1, §2

Data set [5] has as its system human lung cancer cells A549. In words: MTT assay, survival/growth of cultured human lung cancer cells A549. Type of data set: cell-based. To be noted: for concentration needed for 50% growth inhibition (ID50): Table 3, A549; for EC50: figure legends, survival of cultured A549 cells, MTT, six days after drug treatment, read-out: ED50 (the source's name). The method, then:
as §4, §1, §2

Data set [6] deals with human prostate cancer cells DU145. In words: MTT assay, survival/growth of cultured human prostate cancer cells DU145. As to conditions: for EC50: figure legends, survival of cultured DU145 cells, MTT, six days after drug treatment, read-out: ED50 (the source's name); for IC50: read-out: concentration needed for 50% growth inhibition (ID50), Table 3, DU-145. It counts as cell-based. The method, then:
as §1, §2, §3

In data set [7] the test system is human prostate cancer cells LNCAP. In words: MTT assay, survival/growth of cultured human prostate cancer cells LNCAP. It counts as cell-based. As to conditions: figure legends, survival of cultured LNCAP cells, six days after drug treatment, read-out: ED50 (the source's name). The method, then:
as §1, §2, §3

Data set [8] concerns human prostate cancer cells DUPRO. In words: MTT assay, survival/growth of cultured human prostate cancer cells DUPRO. Type of data set: cell-based. As to conditions: for IC50: read-out: concentration needed for 50% growth inhibition (ID50), Table 3, DUPRO; for EC50: figure legends, survival of cultured DUPRO cells, MTT, six days after drug treatment, read-out: ED50 (the source's name). The method, then: as §1, §2, §3

Counter-ions that a name gives are not always drawn.

Regarding `CCNCCCCNCCCCNCCCCNCCCC1=C(C)c2cc3[nH]c(cc4nc(cc5[nH]c(cc1n2)c(CCCNCCCCNCCCCNCCCCNCC)c5C)C(CC)=C4C)c(CC)c3C` (as salt: hydrochloride) [SL-11202], the melting point (in general, the temperature of the solid-liquid transition) amounted to 200 °C.

Take `CCNCCCCNCC1CC1CNCCCCNCC` (stereo not shown) [SL-11098]: the EC50 in data set [1] stood at 1.4 µM; in [4] it was 0.1 µM; in [5], 0.29 µM; in data set [6], 0.02 µM; in data set [7], 0.17 µM. Further, the IC50 is 1.4 µM in data set [1]; more than 31.2 µM in [2]; 0.4 µM in data set [3]; 0.1 µM in data set [4]; 0.018 µM in data set [6]; 0.08 µM in data set [8]. Moreover, the “concentration needed for 50% growth inhibition (ID50)” value in data set [5] was 0.51 µM.

As to `CCNCCCCNCC1CCC1CNCCCCNCC` (stereo not shown) [SL-11099], the EC50 in data set [1] worked out at 2.5 µM; in [2] (figure legends, survival of cultured MCF7 cells, MTT, six days after drug treatment, read-out: ED50 (the source's name)) it was 26.3 µM; in [4] it was 0.11 µM; in [5], 0.51 µM; in [6], 0.014 µM; in data set [7], 0.21 µM. Besides, the EC50 in [8] was found to be 0.08 µM. Further, the IC50 in data set [1] was 2.5 µM; in data set [2], 26.3 µM; in data set [3] it was 1 µM; in data set [4], 0.11 µM; in data set [6] it was 0.014 µM; in [8] it was 0.08 µM. Besides, the “concentration needed for 50% growth inhibition (ID50)” value in data set [5] is 0.65 µM.

As to `CCNCCCCNCC1CCC1CNCCCCNCC` (stereo not shown) [SL-11100], the EC50 was found to be 4.7 µM in data set [1]; 0.22 µM in [4]; 0.65 µM in data set [5]; 0.021 µM in data set [6]; 0.7 µM in data set [7]; 0.3 µM in data set [8]. The IC50 in data set [1] was 4.7 µM; in [2] it was more than 31.2 µM; in data set [3] it was 2 µM; in data set [4], 0.22 µM; in data set [6], 0.021 µM; in data set [8], 0.29 µM. In data set [5], the “concentration needed for 50% growth inhibition (ID50)” value was 2.20 µM.

On to `CCNC/C=C\CNC/C=C\CNC/C=C\CNCC` [SL-11108], for which the EC50 in [1] turned out to be 2.2 µM; in data set [4], 2 µM; in [6], 0.13 µM; in data set [7] it was 7.7 µM; in data set [8], 0.98 µM. Further, the IC50 in [1] was 2.2 µM; in data set [2], more than 31.2 µM; in [3], 2 µM; in data set [4] it was 2 µM; in data set [6], 0.13 µM; in data set [8], 0.98 µM. The “concentration needed for 50% growth inhibition (ID50)” value in [5] is more than 31.25 µM.
